Source: ChEMBL document CHEMBL2424622, “Development of amino-pyrimidine inhibitors of c-Jun N-terminal kinase (JNK): kinase profiling guided optimization of a 1,2,3-benzotriazole lead” (Bioorg Med Chem Lett, 2013)

Experiments:
[1] = biological target: T1, Non-receptor tyrosine-protein kinase TNK1 (Homo sapiens) (UniProt Q13470); assay: Competitive binding affinity to TNK1 (unknown origin) at 10 uM in presence of ATP relative to control
T1 sequence (whole entry): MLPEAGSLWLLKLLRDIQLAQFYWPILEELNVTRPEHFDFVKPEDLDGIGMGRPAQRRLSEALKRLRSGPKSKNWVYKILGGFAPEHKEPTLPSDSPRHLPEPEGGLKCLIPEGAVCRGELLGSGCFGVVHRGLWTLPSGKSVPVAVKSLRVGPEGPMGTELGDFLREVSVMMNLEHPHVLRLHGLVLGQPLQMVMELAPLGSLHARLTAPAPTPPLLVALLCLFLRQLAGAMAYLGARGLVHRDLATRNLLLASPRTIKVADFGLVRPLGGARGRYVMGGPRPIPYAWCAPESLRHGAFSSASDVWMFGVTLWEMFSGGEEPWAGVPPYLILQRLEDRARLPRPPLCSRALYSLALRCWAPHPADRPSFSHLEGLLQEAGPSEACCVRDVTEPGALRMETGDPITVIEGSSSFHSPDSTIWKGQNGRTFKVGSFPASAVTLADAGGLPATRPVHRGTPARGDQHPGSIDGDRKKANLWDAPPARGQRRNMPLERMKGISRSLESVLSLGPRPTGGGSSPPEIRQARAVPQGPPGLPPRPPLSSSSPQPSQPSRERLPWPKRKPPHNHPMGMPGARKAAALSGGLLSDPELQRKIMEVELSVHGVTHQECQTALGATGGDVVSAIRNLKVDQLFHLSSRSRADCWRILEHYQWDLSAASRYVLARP

[2] = biological target: T2, Serine/threonine-protein kinase 17B (Homo sapiens) (UniProt O94768); assay: Competitive binding affinity to DRAK2 (unknown origin) at 10 uM in presence of ATP relative to control
T2 sequence (whole entry): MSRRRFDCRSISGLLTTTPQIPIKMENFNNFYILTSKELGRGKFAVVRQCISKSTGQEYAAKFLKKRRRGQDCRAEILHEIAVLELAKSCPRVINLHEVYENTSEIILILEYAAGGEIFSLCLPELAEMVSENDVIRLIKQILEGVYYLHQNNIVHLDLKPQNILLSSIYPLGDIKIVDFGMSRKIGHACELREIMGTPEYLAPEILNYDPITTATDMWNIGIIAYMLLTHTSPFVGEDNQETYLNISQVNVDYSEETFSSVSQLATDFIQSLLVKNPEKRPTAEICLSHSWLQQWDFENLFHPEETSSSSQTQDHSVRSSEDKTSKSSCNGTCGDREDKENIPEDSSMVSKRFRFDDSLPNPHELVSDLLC

[3] = biological target: T3, Serine/threonine-protein kinase D1 (Homo sapiens) (UniProt Q15139); assay: Competitive binding affinity to PRKD1 (unknown origin) at 10 uM in presence of ATP relative to control
T3 sequence (whole entry): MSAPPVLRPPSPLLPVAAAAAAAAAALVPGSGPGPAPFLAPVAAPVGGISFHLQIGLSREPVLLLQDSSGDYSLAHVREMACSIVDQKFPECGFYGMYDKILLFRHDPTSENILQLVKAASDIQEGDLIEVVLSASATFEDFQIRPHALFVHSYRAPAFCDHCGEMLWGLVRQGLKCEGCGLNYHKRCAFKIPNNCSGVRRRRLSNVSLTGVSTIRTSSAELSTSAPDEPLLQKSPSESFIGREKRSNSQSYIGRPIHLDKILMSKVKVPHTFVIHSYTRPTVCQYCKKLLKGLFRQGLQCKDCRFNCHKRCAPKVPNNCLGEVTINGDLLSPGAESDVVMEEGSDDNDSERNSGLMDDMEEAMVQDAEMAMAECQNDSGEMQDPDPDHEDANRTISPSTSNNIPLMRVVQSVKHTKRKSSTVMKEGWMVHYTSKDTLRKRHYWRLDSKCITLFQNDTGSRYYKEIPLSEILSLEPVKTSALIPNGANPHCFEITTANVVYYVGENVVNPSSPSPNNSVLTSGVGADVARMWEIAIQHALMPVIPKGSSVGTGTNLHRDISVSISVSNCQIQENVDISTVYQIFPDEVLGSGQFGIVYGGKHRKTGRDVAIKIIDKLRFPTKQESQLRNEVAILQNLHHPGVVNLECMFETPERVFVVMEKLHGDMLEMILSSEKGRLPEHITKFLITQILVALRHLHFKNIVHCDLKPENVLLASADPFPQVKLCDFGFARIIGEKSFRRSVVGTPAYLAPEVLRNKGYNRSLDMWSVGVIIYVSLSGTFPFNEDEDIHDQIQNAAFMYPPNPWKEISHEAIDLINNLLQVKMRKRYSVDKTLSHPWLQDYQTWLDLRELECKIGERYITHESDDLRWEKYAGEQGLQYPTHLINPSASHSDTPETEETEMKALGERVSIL

[4] = biological target: T4, Serine/threonine-protein kinase tousled-like 1 (Homo sapiens) (UniProt Q9UKI8); assay: Competitive binding affinity to TLK1 (unknown origin) at 10 uM in presence of ATP relative to control
T4 sequence (whole entry): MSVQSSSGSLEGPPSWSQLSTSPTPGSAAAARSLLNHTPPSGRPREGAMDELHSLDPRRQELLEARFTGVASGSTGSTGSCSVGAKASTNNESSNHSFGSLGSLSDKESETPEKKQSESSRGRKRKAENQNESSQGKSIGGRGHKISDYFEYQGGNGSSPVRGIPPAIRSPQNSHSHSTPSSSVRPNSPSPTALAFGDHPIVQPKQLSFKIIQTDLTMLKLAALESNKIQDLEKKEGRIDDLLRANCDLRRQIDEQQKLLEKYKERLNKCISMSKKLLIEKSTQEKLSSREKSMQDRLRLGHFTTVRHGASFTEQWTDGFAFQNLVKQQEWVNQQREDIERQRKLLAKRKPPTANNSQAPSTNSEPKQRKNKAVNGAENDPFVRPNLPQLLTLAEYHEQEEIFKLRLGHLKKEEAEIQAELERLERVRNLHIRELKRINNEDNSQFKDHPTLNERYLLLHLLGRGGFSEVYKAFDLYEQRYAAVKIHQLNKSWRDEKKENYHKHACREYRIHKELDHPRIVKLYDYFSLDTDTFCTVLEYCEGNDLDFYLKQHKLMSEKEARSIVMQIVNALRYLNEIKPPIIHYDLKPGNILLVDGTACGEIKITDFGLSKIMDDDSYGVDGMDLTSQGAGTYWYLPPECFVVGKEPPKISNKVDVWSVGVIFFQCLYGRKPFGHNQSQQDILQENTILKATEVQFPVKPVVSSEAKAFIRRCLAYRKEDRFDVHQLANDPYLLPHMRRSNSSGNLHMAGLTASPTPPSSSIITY

[5] = biological target: Dual specificity tyrosine-phosphorylation-regulated kinase 1B (Homo sapiens) (UniProt Q9Y463); assay: Competitive binding affinity to DYRK1B (unknown origin) at 10 uM in presence of ATP relative to control
[6] = biological target: Activin receptor type-2B (Homo sapiens) (UniProt Q13705); assay: Competitive binding affinity to ACVR2B (unknown origin) at 10 uM in presence of ATP relative to control
Sequence of Activin receptor type-2B (Homo sapiens) (Q13705 whole entry): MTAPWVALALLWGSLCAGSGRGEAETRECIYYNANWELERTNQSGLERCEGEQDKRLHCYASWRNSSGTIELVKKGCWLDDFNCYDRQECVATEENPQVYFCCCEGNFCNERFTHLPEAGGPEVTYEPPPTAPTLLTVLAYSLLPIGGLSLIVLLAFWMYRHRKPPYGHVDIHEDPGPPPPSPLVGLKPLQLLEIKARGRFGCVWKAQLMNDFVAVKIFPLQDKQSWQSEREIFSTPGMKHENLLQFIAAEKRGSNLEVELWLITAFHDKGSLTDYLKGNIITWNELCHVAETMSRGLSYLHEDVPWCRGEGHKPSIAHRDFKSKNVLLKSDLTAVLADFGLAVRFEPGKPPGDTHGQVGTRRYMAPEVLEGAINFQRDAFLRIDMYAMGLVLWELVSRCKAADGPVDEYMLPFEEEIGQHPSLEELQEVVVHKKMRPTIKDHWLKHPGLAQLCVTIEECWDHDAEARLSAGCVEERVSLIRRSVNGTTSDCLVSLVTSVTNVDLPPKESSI

Sequence of Dual specificity tyrosine-phosphorylation-regulated kinase 1B (Homo sapiens) (Q9Y463 whole entry, looked up): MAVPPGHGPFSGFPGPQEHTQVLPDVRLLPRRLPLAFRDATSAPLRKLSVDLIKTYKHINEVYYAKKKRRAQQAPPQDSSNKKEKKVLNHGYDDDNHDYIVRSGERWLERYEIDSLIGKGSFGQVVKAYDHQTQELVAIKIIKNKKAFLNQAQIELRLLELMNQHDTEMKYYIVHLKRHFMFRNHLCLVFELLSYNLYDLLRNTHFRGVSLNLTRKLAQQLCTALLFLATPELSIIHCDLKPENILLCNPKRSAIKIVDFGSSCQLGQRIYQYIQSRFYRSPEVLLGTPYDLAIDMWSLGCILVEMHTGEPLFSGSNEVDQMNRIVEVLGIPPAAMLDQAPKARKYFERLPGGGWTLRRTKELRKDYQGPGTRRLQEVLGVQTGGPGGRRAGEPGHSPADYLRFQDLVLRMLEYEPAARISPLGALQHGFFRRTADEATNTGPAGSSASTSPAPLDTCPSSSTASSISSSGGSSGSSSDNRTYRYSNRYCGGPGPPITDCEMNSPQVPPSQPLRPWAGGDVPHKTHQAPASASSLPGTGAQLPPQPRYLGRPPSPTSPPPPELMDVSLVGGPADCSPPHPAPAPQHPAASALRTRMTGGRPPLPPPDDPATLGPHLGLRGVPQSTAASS

SMILES	inhibition [1] [%]	inhibition [2] [%]	inhibition [3] [%]	inhibition [4] [%]	inhibition [5] [%]	inhibition [6] [%]
O[C@H]1CC[C@H](Nc2nccc(-n3nnc4ccccc43)n2)CC1	< 50	86	98	< 50	100	74
O[C@H]1CC[C@H](Nc2nccc(-n3ncc4ccccc43)n2)CC1	< 50	91	96	< 50	99	< 50
O[C@H]1CC[C@H](Nc2nccc(-c3n[nH]c4ccccc34)n2)CC1	81			90		< 50
O[C@H]1CC[C@H](Nc2nccc(-n3ccc4ccccc43)n2)CC1	< 50	< 50	95	< 50	100	< 50
